# Data: PubChem BioAssay AID330 (DTP/NCI, 2004)
# Several values for one entry are separate records, joined by “and”; a condition that tells them apart may be missing. Equal values may be shown once. Toxic doses and inconclusive results are not listed.
# Test system: P388 leukemia ip, CD2F1 mice, survival T/C
# Experiment: NCI In Vivo Anticancer Drug Screen. Data for tumor model P388 Leukemia (intraperitoneal) in CD2F1 (CDF1) mice
# Settings: endpoint: median survival time, higher = longer survival
# How it was run: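 Mice carrying the transplanted tumor received test compound or vehicle. Survival was recorded in each group, and the value is the treated-group measurement divided by that of the vehicle-treated control group.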
# [1] = dose: 50.0 mg/kg/injection, schedule: Q01DX009 (ip), vehicle: saline with Tween-80
# [2] = dose: 100.0 mg/kg/injection, schedule: Q01DX009 (ip), vehicle: saline with Tween-80
# [3] = dose: 100.0 mg/kg/injection, schedule: Q04DX003 (ip), vehicle: saline with Tween-80
# [4] = dose: 200.0 mg/kg/injection, schedule: Q01DX009 (ip), vehicle: saline with Tween-80
# [5] = dose: 200.0 mg/kg/injection, schedule: Q04DX003 (ip), vehicle: saline with Tween-80
# [6] = dose: 400.0 mg/kg/injection, schedule: Q04DX003 (ip), vehicle: saline with Tween-80
# [7] = dose: 25.0 mg/kg/injection, schedule: Q01DX001 (ip), vehicle: saline
# [8] = dose: 50.0 mg/kg/injection, schedule: Q01DX001 (ip), vehicle: saline
# [9] = dose: 100.0 mg/kg/injection, schedule: Q04DX002 (ip), vehicle: saline
# [10] = dose: 200.0 mg/kg/injection, schedule: Q04DX002 (ip), vehicle: saline
# [11] = dose: 60.0 mg/kg/injection, schedule: Q01DX005 (ip), vehicle: saline with Tween-80
# [12] = dose: 120.0 mg/kg/injection, schedule: Q01DX005 (ip), vehicle: saline with Tween-80
# [13] = dose: 240.0 mg/kg/injection, schedule: Q01DX005 (ip), vehicle: saline with Tween-80
# [14] = dose: 50.0 mg/kg/injection, schedule: Q01DX009 (ip), vehicle: Klucel (hydroxypropylcellulose) (HPC)
# [15] = dose: 100.0 mg/kg/injection, schedule: Q01DX009 (ip), vehicle: Klucel (hydroxypropylcellulose) (HPC)
smiles,measurement,setting,value
COC1C=CC23c4cc5c(cc4C(O)OC2CN(C)C3C1)OCO5 (stereo unspecified),T/C,"dose: 12.5 mg/kg/injection, schedule: Q01DX009 (ip), vehicle: saline",106 % of control
same,T/C,"dose: 25.0 mg/kg/injection, schedule: Q01DX009 (ip), vehicle: saline",107 % of control
same,T/C,"dose: 50.0 mg/kg/injection, schedule: Q01DX009 (ip), vehicle: saline",115 % of control
same,T/C,"dose: 100.0 mg/kg/injection, schedule: Q01DX009 (ip), vehicle: saline",94 % of control
ClC(Cl)(Cl)C1OCCO1,T/C,[1],95 % of control
same,T/C,[2],104 % of control
same,T/C,[3],100 % of control
same,T/C,[4],90 % of control
same,T/C,[5],90 % of control
same,T/C,[6],95 % of control
CC(C)(C)c1ccc(OCc2cnc[nH]2)cc1,T/C,[7],102 % of control
same,T/C,[8],101 % of control
same,T/C,"dose: 100.0 mg/kg/injection, schedule: Q01DX001 (ip), vehicle: saline",110 % of control
Cc1csc2nc(-c3cccs3)nn12,T/C,"dose: 30.0 mg/kg/injection, schedule: Q01DX005 (ip), vehicle: Klucel (hydroxypropylcellulose) (HPC)",103 % of control
same,T/C,"dose: 60.0 mg/kg/injection, schedule: Q01DX005 (ip), vehicle: Klucel (hydroxypropylcellulose) (HPC)",98 % of control
same,T/C,"dose: 120.0 mg/kg/injection, schedule: Q01DX005 (ip), vehicle: Klucel (hydroxypropylcellulose) (HPC)",103 % of control
same,T/C,"dose: 240.0 mg/kg/injection, schedule: Q01DX005 (ip), vehicle: Klucel (hydroxypropylcellulose) (HPC)",105 % of control
O=C(Nc1nncs1)c1cccs1,T/C,"dose: 50.0 mg/kg/injection, schedule: Q04DX002 (ip), vehicle: saline with Tween-80",100 % of control
same,T/C,"dose: 50.0 mg/kg/injection, schedule: Q04DX002 (ip), vehicle: saline",113 % of control
same,T/C,"dose: 100.0 mg/kg/injection, schedule: Q01DX005 (ip), vehicle: saline with Tween-80",103 % of control
same,T/C,"dose: 100.0 mg/kg/injection, schedule: Q04DX002 (ip), vehicle: saline with Tween-80",104 % of control and 114 % of control
same,T/C,[9],106 % of control
same,T/C,"dose: 200.0 mg/kg/injection, schedule: Q01DX005 (ip), vehicle: saline with Tween-80",101 % of control
same,T/C,"dose: 200.0 mg/kg/injection, schedule: Q04DX002 (ip), vehicle: saline with Tween-80",114 % of control
same,T/C,[10],122 % of control
same,T/C,"dose: 400.0 mg/kg/injection, schedule: Q01DX005 (ip), vehicle: saline with Tween-80",96 % of control
same,T/C,"dose: 600.0 mg/kg/injection, schedule: Q04DX002 (ip), vehicle: saline with Tween-80",160 % of control
same,T/C,"dose: 800.0 mg/kg/injection, schedule: Q01DX005 (ip), vehicle: saline with Tween-80",104 % of control
CCN(CC)CCN1N=C(c2ccccc2O)OCC1=O,T/C,[1],108 % of control
same,T/C,[2],103 % of control
same,T/C,[4],98 % of control
Clc1ccc(CSc2ncnc3nc[nH]c23)cc1,T/C,[3],109 % of control
same,T/C,[5],104 % of control
same,T/C,[6],109 % of control
CCOC(=O)c1c[nH]c2c(=O)n(C)c(=O)[nH]c12,T/C,[3],93 % of control
same,T/C,[5],100 % of control
CN(c1ccccc1)c1cc(O)[nH]c(=O)c1,T/C,"dose: 12.5 mg/kg/injection, schedule: Q01DX009 (ip), vehicle: water",96 % of control
same,T/C,"dose: 25.0 mg/kg/injection, schedule: Q01DX009 (ip), vehicle: water",111 % of control
same,T/C,"dose: 50.0 mg/kg/injection, schedule: Q01DX009 (ip), vehicle: water",99 % of control
same,T/C,"dose: 100.0 mg/kg/injection, schedule: Q01DX009 (ip), vehicle: water",100 % of control
same,T/C,"dose: 200.0 mg/kg/injection, schedule: Q01DX009 (ip), vehicle: water",97 % of control
C#CCOc1ccccc1C(=O)NNc1ccc([N+](=O)[O-])cc1[N+](=O)[O-],T/C,[1],97 % of control
same,T/C,[2],87 % of control
CCOc1cc2c(cc1C(C)(C)c1ccc(OC)cc1)OCO2,T/C,[11],98 % of control
same,T/C,[12],109 % of control and 113 % of control
same,T/C,[13],123 % of control
Nc1c(I)cc(I)cc1C(=O)O,T/C,[14],99 % of control and 101 % of control
same,T/C,[15],101 % of control and 114 % of control
C=C1C(=O)OC2/C=C(\C)C(O)CCC(C)(O)CC(OC(=O)/C(C)=C/C)C12 (stereo unspecified),T/C,"dose: 7.5 mg/kg/injection, schedule: Q01DX009 (ip), vehicle: saline with Tween-80",104 % of control
same,T/C,"dose: 15.0 mg/kg/injection, schedule: Q01DX009 (ip), vehicle: saline with Tween-80",98 % of control
same,T/C,"dose: 30.0 mg/kg/injection, schedule: Q01DX009 (ip), vehicle: saline with Tween-80",104 % of control
same,T/C,"dose: 60.0 mg/kg/injection, schedule: Q01DX009 (ip), vehicle: saline with Tween-80",108 % of control
O=C1c2cc(Cl)ccc2NC(O)c2cccn21 (stereo unspecified),T/C,"dose: 0.1 mg/kg/injection, schedule: Q01DX005 (ip), vehicle: water",93 % of control
same,T/C,"dose: 0.2 mg/kg/injection, schedule: Q01DX005 (ip), vehicle: water",89 % of control
same,T/C,"dose: 0.4 mg/kg/injection, schedule: Q01DX005 (ip), vehicle: water",90 % of control
same,T/C,"dose: 0.8 mg/kg/injection, schedule: Q01DX005 (ip), vehicle: water",98 % of control
same,T/C,"dose: 1.6 mg/kg/injection, schedule: Q01DX005 (ip), vehicle: water",98 % of control
same,T/C,"dose: 5.0 mg/kg/injection, schedule: Q01DX005 (ip), vehicle: distilled water + Tween-80",95 % of control
same,T/C,"dose: 10.0 mg/kg/injection, schedule: Q01DX005 (ip), vehicle: distilled water + Tween-80",101 % of control
same,T/C,"dose: 20.0 mg/kg/injection, schedule: Q01DX005 (ip), vehicle: distilled water + Tween-80",95 % of control
same,T/C,"dose: 40.0 mg/kg/injection, schedule: Q01DX005 (ip), vehicle: distilled water + Tween-80",92 % of control
same,T/C,"dose: 80.0 mg/kg/injection, schedule: Q01DX005 (ip), vehicle: distilled water + Tween-80",93 % of control
CCOC(=O)c1cc[nH]c1CC(=O)OC,T/C,"dose: 100.0 mg/kg/injection, schedule: Q01DX001 (ip), vehicle: saline with Tween-80",99 % of control
same,T/C,"dose: 200.0 mg/kg/injection, schedule: Q01DX001 (ip), vehicle: saline with Tween-80",96 % of control
same,T/C,"dose: 400.0 mg/kg/injection, schedule: Q01DX001 (ip), vehicle: saline with Tween-80",100 % of control
COC(=O)/C=C/N=[N+]=[N-],T/C,[11],106 % of control
same,T/C,[12],106 % of control
same,T/C,[13],106 % of control
C[C@]12CCC(=O)N[C@@H]1CC[C@@H]1[C@@H]2CC[C@]2(C)[C@@H](OC(=O)COc3ccc(N(CCCl)CCCl)cc3)CC[C@@H]12,T/C,"dose: 2.5 mg/kg/injection, schedule: Q01DX005 (ip), vehicle: saline with Tween-80",116 % of control
same,T/C,"dose: 10.0 mg/kg/injection, schedule: Q01DX005 (ip), vehicle: saline with Tween-80",155 % of control
same,T/C,"dose: 15.0 mg/kg/injection, schedule: Q01DX005 (ip), vehicle: saline with Tween-80",181 % of control
same,T/C,"dose: 20.0 mg/kg/injection, schedule: Q01DX005 (ip), vehicle: saline with Tween-80",192 % of control
same,T/C,"dose: 30.0 mg/kg/injection, schedule: Q01DX005 (ip), vehicle: saline with Tween-80",220 % of control
CCOC(=O)C1=NN(c2ccccc2)C(C(N)=O)C1 (stereo unspecified),T/C,[11],100 % of control
same,T/C,[12],101 % of control
same,T/C,[13],101 % of control
CNCCNc1ncc([N+](=O)[O-])s1,T/C,[7],115 % of control and 118 % of control
same,T/C,[8],122 % of control and 124 % of control
Cc1ccc(-c2c(C)c3c(c(C)c2-c2ccc(C)cc2)-c2ccccc2C3=O)cc1,T/C,[9],100 % of control
same,T/C,[10],95 % of control
CCOC1=N[C@H]2CCCC[C@H]2N1,T/C,"dose: 15.0 mg/kg/injection, schedule: Q01DX005 (ip), vehicle: saline",98 % of control
same,T/C,"dose: 30.0 mg/kg/injection, schedule: Q01DX005 (ip), vehicle: saline",96 % of control
same,T/C,"dose: 60.0 mg/kg/injection, schedule: Q01DX005 (ip), vehicle: saline",102 % of control and 98 % of control
CC(C)c1nccn1Cc1c(Cl)cccc1Cl,T/C,[14],102 % of control
same,T/C,[15],95 % of control
same,T/C,"dose: 200.0 mg/kg/injection, schedule: Q01DX009 (ip), vehicle: Klucel (hydroxypropylcellulose) (HPC)",96 % of control
